In patent US9365572B2, “PI3K and/or mTOR inhibitor” (XUANZHU PHARMA CO., LTD., priority 2012, dated 2016):

Columns and labels:
Bradykinin B2 = Bradykinin B2 (Homo sapiens (Human), UniProt P30411); assay: Radioligand binding assay No. 212620; settings: test substance 10 μM, read-out: Inhibitory rate (%), Bradykinin B2
GABAA, Muscimol, Central = assay: Radioligand binding assay No. 226500; settings: test substance 10 μM; rat
Glucocorticoid = Glucocorticoid (Homo sapiens (Human), UniProt P04150); assay: Radioligand binding assay No. 232030; settings: test substance 10 μM, read-out: Inhibitory rate (%), Glucocorticoid
Neuropeptide Y Y1 = Neuropeptide Y Y1 (Homo sapiens (Human), UniProt P25929); assay: Radioligand binding assay No. 257010; settings: test substance 10 μM, read-out: Inhibitory rate (%), Neuropeptide Y Y1
Purinergic P2X = assay: Radioligand binding assay No. 268700; settings: test substance 10 μM; rabbit
[1] = biological target: Transporter, Serotonin (5-Hydroxytryptamine) (SERT) (Homo sapiens (Human), UniProt P31645); assay: Radioligand binding assay No. 274030; settings: test substance 10 μM, read-out: Inhibitory rate (%), Transporter, Serotonin (5-Hydroxytryptamine) (SERT)
PI3Kα = PI3Kα (Homo sapiens (Human), UniProt P42336); assay: PI3Kα enzymatic assay; type: biochemical; settings: read-out: In vitro enzymatic activity (IC50) PI3Kα
Method: Assay 1-2: In Vitro Enzymatic Inhibitory Activity of the Present Compound
• 1.1 1-fold kinase buffer: 50 mM HEPES, pH 7.5, 10 mM MgCl2, 1 mM EGTA, 3 mM MnCl2, 0.01% Tween-20, 2 mM DTT; • 1.2 4-fold kinase solution: mTOR kinase was added to 1-fold kinase buffer to form 4-fold kinase solution with a final concentration of 2.5 nM; • 1.3 2-fold substrate and ATP solution: the substrate 4EBP1 and ATP were added to 1-fold kinase buffer to form 2-fold substrate solution with final concentration of 50 nM of 4EBP1 and 10.8 μM of ATP; • 1.4 4-fold test substance solutions: 100-fold test substance solutions in different gradient concentrations were formulated with 100% DMSO, and diluted by 25 folds with 1-fold kinase buffer to form 4-fold test substance solutions in different gradient concentrations. • 1.5 Preparation of detection solution: a detection solution containing 2-fold final concentrations of EDTA and 4EBP1 phosphorylated antibody was formulated, wherein the final concentration for EDTA was 8 mM, and the final concentration for the 4EBP phosphorylated antibody was 2 nM. 2. Procedure • 2.1 To each well of a 384-well plate was added 2.5 μL of the 4-fold test substance solutions in gradient concentrations. The replication was made. • 2.2 To each well was added 2.5 μL of 4-fold kinase solution, and then the plate was incubated for 10 mins; • 2.3 Then to each well was added 5 μL/of 2-fold substrate and ATP solution, and then the plate was incubated at room temperature for 1 hour; • 2.4 Finally, 10 μL of the detection solution was added to terminate the reaction. After 60 mins, the data Lance signal ([…]) was read from Envision. 3 Data treatment Inhibition rate (%)=[…] • wherein: • maximum refers to the reading at the DMSO control well. • minimum refers to the reading at the control well without kinase, • The data was input into Graphpad Prism 5.0 to plot and obtain the curve and IC50 value. PI3Kα Enzymatic Assay 1. […] After 15 mins, the data Lance signal ([…]) was read from Envision. 3 Data treatment Inhibition rate (%)=100−(sample value−minimum)/(maximum−minimum)×100 • wherein: • maximum refers to the reading at the control well without kinase, • minimum refers to the reading at the DMSO control well, • The data was input into Graphpad Prism 5.0 to plot and obtain the curve and IC50 value. […]

Transporter, Serotonin (5-Hydroxytryptamine) (SERT), sequence (P31645 whole entry): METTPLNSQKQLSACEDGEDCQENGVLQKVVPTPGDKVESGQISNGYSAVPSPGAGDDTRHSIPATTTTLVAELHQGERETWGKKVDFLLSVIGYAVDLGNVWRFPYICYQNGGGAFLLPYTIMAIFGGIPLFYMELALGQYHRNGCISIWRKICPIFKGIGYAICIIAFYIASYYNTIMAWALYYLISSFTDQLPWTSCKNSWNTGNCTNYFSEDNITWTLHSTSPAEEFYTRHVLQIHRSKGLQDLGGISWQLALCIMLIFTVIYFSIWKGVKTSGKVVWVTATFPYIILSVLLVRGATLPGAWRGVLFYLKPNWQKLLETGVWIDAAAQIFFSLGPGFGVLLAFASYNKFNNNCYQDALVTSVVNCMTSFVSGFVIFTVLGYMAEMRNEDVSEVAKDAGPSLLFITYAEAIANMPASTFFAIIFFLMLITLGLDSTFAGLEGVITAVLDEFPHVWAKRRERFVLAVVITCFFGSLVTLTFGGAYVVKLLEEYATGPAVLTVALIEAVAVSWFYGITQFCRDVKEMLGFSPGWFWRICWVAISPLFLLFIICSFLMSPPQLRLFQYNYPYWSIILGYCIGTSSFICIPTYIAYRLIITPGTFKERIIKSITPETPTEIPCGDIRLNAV
Glucocorticoid, sequence (P04150 whole entry): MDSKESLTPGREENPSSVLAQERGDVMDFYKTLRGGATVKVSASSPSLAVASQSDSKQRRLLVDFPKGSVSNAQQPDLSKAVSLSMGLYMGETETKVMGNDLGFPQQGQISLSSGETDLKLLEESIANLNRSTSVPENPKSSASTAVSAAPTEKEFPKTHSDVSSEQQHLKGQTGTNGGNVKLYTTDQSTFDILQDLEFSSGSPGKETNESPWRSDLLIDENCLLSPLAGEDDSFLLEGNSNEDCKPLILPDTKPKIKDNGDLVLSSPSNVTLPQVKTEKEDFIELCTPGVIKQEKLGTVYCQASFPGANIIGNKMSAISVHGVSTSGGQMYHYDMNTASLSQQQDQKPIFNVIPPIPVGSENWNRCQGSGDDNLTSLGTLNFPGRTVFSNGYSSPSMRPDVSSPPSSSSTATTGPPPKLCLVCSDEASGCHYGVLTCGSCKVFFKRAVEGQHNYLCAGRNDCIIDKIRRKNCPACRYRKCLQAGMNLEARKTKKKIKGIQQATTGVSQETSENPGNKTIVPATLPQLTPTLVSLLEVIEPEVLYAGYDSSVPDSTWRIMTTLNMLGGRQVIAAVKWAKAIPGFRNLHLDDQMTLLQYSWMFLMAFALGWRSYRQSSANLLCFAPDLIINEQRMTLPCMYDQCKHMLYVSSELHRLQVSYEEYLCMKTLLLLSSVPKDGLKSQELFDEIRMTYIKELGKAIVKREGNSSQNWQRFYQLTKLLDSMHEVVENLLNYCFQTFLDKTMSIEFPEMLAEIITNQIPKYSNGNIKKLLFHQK
Neuropeptide Y Y1, sequence (P25929 whole entry): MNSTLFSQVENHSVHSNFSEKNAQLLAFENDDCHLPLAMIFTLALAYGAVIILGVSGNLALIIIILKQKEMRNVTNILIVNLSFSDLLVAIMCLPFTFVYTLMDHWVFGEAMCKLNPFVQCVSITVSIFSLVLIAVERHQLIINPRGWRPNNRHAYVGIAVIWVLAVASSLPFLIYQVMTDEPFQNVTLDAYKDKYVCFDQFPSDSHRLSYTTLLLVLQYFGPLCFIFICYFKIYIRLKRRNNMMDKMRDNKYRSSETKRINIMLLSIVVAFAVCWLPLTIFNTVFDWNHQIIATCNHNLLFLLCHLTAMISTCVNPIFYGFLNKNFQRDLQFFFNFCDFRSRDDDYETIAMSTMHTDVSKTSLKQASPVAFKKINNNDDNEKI
Bradykinin B2, sequence (P30411 whole entry): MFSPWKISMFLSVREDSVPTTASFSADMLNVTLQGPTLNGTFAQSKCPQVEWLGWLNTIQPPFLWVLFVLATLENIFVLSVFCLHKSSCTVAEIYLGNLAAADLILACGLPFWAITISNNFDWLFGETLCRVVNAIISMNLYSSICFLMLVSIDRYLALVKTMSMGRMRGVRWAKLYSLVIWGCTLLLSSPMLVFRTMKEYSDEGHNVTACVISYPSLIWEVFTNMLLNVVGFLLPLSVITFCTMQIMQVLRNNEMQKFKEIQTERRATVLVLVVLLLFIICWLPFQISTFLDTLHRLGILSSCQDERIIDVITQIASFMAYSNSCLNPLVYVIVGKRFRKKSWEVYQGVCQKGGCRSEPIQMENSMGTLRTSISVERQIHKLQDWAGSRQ
PI3Kα, sequence (P42336 whole entry): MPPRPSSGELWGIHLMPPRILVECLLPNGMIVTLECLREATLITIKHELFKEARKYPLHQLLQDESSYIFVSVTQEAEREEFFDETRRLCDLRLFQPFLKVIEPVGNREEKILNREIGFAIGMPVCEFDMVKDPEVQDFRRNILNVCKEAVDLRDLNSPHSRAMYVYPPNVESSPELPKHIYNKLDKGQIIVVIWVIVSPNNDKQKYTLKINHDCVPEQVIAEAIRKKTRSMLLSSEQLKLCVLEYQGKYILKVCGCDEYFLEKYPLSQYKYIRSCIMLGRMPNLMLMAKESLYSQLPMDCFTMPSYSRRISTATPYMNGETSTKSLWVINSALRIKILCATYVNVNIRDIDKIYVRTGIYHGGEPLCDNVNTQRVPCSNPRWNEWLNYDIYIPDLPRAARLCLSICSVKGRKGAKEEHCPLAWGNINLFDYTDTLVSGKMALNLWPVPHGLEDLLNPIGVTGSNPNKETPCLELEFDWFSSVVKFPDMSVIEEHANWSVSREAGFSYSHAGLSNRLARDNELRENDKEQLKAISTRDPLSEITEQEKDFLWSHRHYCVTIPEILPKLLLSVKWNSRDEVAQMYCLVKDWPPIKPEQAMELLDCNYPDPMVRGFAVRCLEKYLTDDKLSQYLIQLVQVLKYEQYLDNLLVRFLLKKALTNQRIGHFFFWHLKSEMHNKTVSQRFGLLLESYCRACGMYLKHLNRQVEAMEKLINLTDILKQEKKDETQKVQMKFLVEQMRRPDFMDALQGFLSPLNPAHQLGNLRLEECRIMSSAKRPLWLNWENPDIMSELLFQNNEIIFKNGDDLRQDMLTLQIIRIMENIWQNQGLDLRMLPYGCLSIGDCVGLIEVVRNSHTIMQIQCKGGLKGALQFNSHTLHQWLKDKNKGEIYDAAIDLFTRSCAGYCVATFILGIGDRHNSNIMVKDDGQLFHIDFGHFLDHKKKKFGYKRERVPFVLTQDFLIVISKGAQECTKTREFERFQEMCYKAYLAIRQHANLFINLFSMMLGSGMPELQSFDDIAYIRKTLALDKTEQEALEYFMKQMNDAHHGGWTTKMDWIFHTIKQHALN
PI3Kα, sequence (P27986 whole entry partner): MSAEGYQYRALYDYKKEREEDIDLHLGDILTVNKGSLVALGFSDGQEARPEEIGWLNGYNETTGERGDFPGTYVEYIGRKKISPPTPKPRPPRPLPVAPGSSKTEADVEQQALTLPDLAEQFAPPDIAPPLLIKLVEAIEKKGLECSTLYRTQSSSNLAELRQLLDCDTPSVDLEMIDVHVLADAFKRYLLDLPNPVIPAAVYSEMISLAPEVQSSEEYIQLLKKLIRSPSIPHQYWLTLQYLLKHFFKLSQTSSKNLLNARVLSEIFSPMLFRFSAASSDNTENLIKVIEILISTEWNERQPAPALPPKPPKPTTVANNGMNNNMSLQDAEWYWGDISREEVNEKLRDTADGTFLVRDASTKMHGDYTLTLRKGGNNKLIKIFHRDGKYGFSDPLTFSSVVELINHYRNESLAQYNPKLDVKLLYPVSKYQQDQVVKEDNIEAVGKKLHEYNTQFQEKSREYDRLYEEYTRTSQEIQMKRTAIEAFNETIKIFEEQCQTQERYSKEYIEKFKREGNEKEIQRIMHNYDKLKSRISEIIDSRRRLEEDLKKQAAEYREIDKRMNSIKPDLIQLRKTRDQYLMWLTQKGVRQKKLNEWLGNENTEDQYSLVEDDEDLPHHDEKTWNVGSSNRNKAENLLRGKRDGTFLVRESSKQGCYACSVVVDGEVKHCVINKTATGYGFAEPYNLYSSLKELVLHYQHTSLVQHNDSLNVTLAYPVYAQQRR

| Structure (SMILES) | inhibition at 10 µM (Bradykinin B2) | Inhibitory rate (%), GABAA, Muscimol, Central (GABAA, Muscimol, Central) | inhibition at 10 µM (Glucocorticoid) | inhibition at 10 µM (Neuropeptide Y Y1) | Inhibitory rate (%), Purinergic P2X (Purinergic P2X) | inhibition at 10 µM [1] | IC50 (PI3Kα) |
| --- | --- | --- | --- | --- | --- | --- | --- |
| Nc1ccc(-c2ccc3ncc4c(=O)[nH]c(=O)n(-c5cccc(C(F)(F)F)c5)c4c3n2)cn1 [Compound 5, 9-(6-aminopyridin-3-yl)-1-(3-(trifluoromethyl)phenyl)pyrimido[5,4-c][1,5]naphthyridine-2,4(1H,3H)-dione] | 24% | 18% | -4% | 3% | 9% | 6% |  |
| O=c1[nH]c(=O)n(-c2cccc(C(F)(F)F)c2)c2c1cnc1ccc(-c3cnc4[nH]ccc4c3)nc12 [Compound 30, 9-(1H-pyrrolo[2,3-b]pyridin-5-yl)-1-(3-(trifluoromethyl)phenyl)pyrimido[5,4-c][1,5]naphthyridine-2,4(1H,3H)-dione] |  |  |  |  |  |  | 0.015 µM |
